According to PubChem BioAssay (NCI):
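Interpolation was linear, between the two tested concentrations surrounding the appropriate level; five concentrations were tested over 48 hours in 96-well plates. GI50 marks 50% less growth. TGI denotes the concentration required for complete inhibition of growth.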

How the values were obtained:
Assay in all cases: inhibition of tumour cell growth, NCI panel, 48 h
SR leukemia = tested on: SR leukemia
A549 NSCLC = tested on: A549 NSCLC
IGROV1 ovarian = tested on: IGROV1 ovarian
TK-10 renal = tested on: TK-10 renal
NCI-H23 lung = tested on: NCI-H23 lung
DLD-1 colon = tested on: DLD-1 colon
NCI-H522 lung = tested on: NCI-H522 lung
SK-OV-3 ovarian = tested on: SK-OV-3 ovarian
COLO 205 colon = tested on: COLO 205 colon
UACC-257 melanoma = tested on: UACC-257 melanoma
SF-539 CNS = tested on: SF-539 CNS
DMS 114 small cell lung = tested on: DMS 114 small cell lung
MALME-3M melanoma = tested on: MALME-3M melanoma
ACHN renal = tested on: ACHN renal
OVCAR-3 ovarian = tested on: OVCAR-3 ovarian
OVCAR-8 ovarian = tested on: OVCAR-8 ovarian
HCC-2998 colon = tested on: HCC-2998 colon
SNB-75 CNS = tested on: SNB-75 CNS
K-562 leukemia = tested on: K-562 leukemia
SNB-19 CNS = tested on: SNB-19 CNS
SN12C renal = tested on: SN12C renal
UO-31 renal = tested on: UO-31 renal
CCRF-CEM leukemia = tested on: CCRF-CEM leukemia
RPMI-8226 leukemia = tested on: RPMI-8226 leukemia
SK-MEL-28 melanoma = tested on: SK-MEL-28 melanoma
SF-268 CNS = tested on: SF-268 CNS
NCI-H226 lung = tested on: NCI-H226 lung
UACC-62 melanoma = tested on: UACC-62 melanoma
HOP-18 NSCLC = tested on: HOP-18 NSCLC
RXF 393 renal = tested on: RXF 393 renal
HOP-92 NSCLC = tested on: HOP-92 NSCLC
MOLT-4 leukemia = tested on: MOLT-4 leukemia
SF-295 CNS = tested on: SF-295 CNS
EKVX NSCLC = tested on: EKVX NSCLC
LOX IMVI melanoma = tested on: LOX IMVI melanoma
HCT-15 colon = tested on: HCT-15 colon
SK-MEL-2 melanoma = tested on: SK-MEL-2 melanoma
KM12 colon = tested on: KM12 colon
SW-620 colon = tested on: SW-620 colon
M14 melanoma = tested on: M14 melanoma
XF 498 CNS = tested on: XF 498 CNS
OVCAR-5 ovarian = tested on: OVCAR-5 ovarian
786-0 renal = tested on: 786-0 renal
M19-MEL melanoma = tested on: M19-MEL melanoma
KM20L2 colon = tested on: KM20L2 colon
SNB-78 CNS = tested on: SNB-78 CNS
HL-60(TB) leukemia = tested on: HL-60(TB) leukemia
HOP-62 NSCLC = tested on: HOP-62 NSCLC
NCI-H460 lung = tested on: NCI-H460 lung
DMS 273 small cell lung = tested on: DMS 273 small cell lung
SK-MEL-5 melanoma = tested on: SK-MEL-5 melanoma
HCT-116 colon = tested on: HCT-116 colon
LXFL 529 NSCLC = tested on: LXFL 529 NSCLC
OVCAR-4 ovarian = tested on: OVCAR-4 ovarian
HT29 colon = tested on: HT29 colon

For `O=S(=O)([O-])c1ccc(C=Nc2ccccc2)c([O-])c1.O=S(=O)([O-])c1ccc(C=Nc2ccccc2)c([O-])c1.[Co+2]`, the GI50 (SR leukemia) was 24.9 µM, the TGI (SR leukemia) was > 100 µM and the GI50 (A549 NSCLC) was 55.2 µM. The TGI (A549 NSCLC) was > 100 µM, the GI50 (IGROV1 ovarian) was > 100 µM and the TGI (IGROV1 ovarian) was > 100 µM. For the same molecule, the GI50 (TK-10 renal) was > 100 µM, the TGI (TK-10 renal) was > 100 µM and the GI50 (NCI-H23 lung) was > 100 µM. For the same molecule, the TGI (NCI-H23 lung) was > 100 µM, the GI50 (DLD-1 colon) was 5.18 µM and the TGI (DLD-1 colon) was > 100 µM. The GI50 (NCI-H522 lung) was > 100 µM, the TGI (NCI-H522 lung) was > 100 µM and the GI50 (SK-OV-3 ovarian) was > 100 µM. For the same molecule, the TGI (SK-OV-3 ovarian) was > 100 µM, the GI50 (COLO 205 colon) was 70.5 µM and the TGI (COLO 205 colon) was > 100 µM. The GI50 (UACC-257 melanoma) was > 100 µM, the TGI (UACC-257 melanoma) was > 100 µM and the GI50 (SF-539 CNS) was 32.6 µM. For the same molecule, the TGI (SF-539 CNS) was > 100 µM, the GI50 (DMS 114 small cell lung) was > 100 µM and the TGI (DMS 114 small cell lung) was > 100 µM. The GI50 (MALME-3M melanoma) was 99.1 µM, the TGI (MALME-3M melanoma) was > 100 µM and the GI50 (ACHN renal) was 48.1 µM. For the same molecule, the TGI (ACHN renal) was > 100 µM, the GI50 (OVCAR-3 ovarian) was > 100 µM and the TGI (OVCAR-3 ovarian) was > 100 µM. For the same molecule, the GI50 (OVCAR-8 ovarian) was 50.6 µM, the TGI (OVCAR-8 ovarian) was > 100 µM and the GI50 (HCC-2998 colon) was > 100 µM. For the same molecule, the TGI (HCC-2998 colon) was > 100 µM, the GI50 (SNB-75 CNS) was > 100 µM and the TGI (SNB-75 CNS) was > 100 µM. The GI50 (K-562 leukemia) was 2.07 µM, the TGI (K-562 leukemia) was > 100 µM and the GI50 (SNB-19 CNS) was > 100 µM. The TGI (SNB-19 CNS) was > 100 µM, the GI50 (SN12C renal) was 18.8 µM and the TGI (SN12C renal) was > 100 µM. The GI50 (UO-31 renal) was 21 µM, the TGI (UO-31 renal) was > 100 µM and the GI50 (CCRF-CEM leukemia) was 11.7 µM. For the same molecule, the TGI (CCRF-CEM leukemia) was > 100 µM, the GI50 (RPMI-8226 leukemia) was > 100 µM and the TGI (RPMI-8226 leukemia) was > 100 µM. For the same molecule, the GI50 (SK-MEL-28 melanoma) was > 100 µM, the TGI (SK-MEL-28 melanoma) was > 100 µM and the GI50 (SF-268 CNS) was 5.18 µM. For the same molecule, the TGI (SF-268 CNS) was > 100 µM, the GI50 (NCI-H226 lung) was 17.7 µM and the TGI (NCI-H226 lung) was > 100 µM. For the same molecule, the GI50 (UACC-62 melanoma) was 3.96 µM, the TGI (UACC-62 melanoma) was > 100 µM and the GI50 (HOP-18 NSCLC) was 43.1 µM. For the same molecule, the TGI (HOP-18 NSCLC) was > 100 µM, the GI50 (RXF 393 renal) was > 100 µM and the TGI (RXF 393 renal) was > 100 µM. The GI50 (HOP-92 NSCLC) was > 100 µM, the TGI (HOP-92 NSCLC) was > 100 µM and the GI50 (MOLT-4 leukemia) was 7.71 µM. For the same molecule, the TGI (MOLT-4 leukemia) was > 100 µM, the GI50 (SF-295 CNS) was > 100 µM and the TGI (SF-295 CNS) was > 100 µM. The GI50 (EKVX NSCLC) was 43.2 µM, the TGI (EKVX NSCLC) was > 100 µM and the GI50 (LOX IMVI melanoma) was 3.01 µM. The TGI (LOX IMVI melanoma) was > 100 µM, the GI50 (HCT-15 colon) was 45.5 µM and the TGI (HCT-15 colon) was > 100 µM. For the same molecule, the GI50 (SK-MEL-2 melanoma) was 77.8 µM, the TGI (SK-MEL-2 melanoma) was > 100 µM and the GI50 (KM12 colon) was 65.4 µM. The TGI (KM12 colon) was > 100 µM, the GI50 (SW-620 colon) was 6.96 µM and the TGI (SW-620 colon) was > 100 µM. For the same molecule, the GI50 (M14 melanoma) was 6.5 µM, the TGI (M14 melanoma) was > 100 µM and the GI50 (XF 498 CNS) was 20.6 µM. The TGI (XF 498 CNS) was > 100 µM, the GI50 (OVCAR-5 ovarian) was 16.1 µM and the TGI (OVCAR-5 ovarian) was > 100 µM. The GI50 (786-0 renal) was 94.7 µM, the TGI (786-0 renal) was > 100 µM and the GI50 (M19-MEL melanoma) was 78.7 µM. For the same molecule, the TGI (M19-MEL melanoma) was > 100 µM, the GI50 (KM20L2 colon) was 1.76 µM and the TGI (KM20L2 colon) was > 100 µM. The GI50 (SNB-78 CNS) was 51.7 µM, the TGI (SNB-78 CNS) was > 100 µM and the GI50 (HL-60(TB) leukemia) was 2.7 µM. For the same molecule, the TGI (HL-60(TB) leukemia) was > 100 µM.
`CC[n+]1c(/C=C/c2cc(C(=O)OC)n3c2sc2ccccc23)sc2ccccc21` was tested, and the TGI (A549 NSCLC) was 38.3 µM, the TGI (IGROV1 ovarian) was 32.9 µM and the TGI (HOP-62 NSCLC) was 34.8 µM. It also gave a TGI (NCI-H522 lung) of 30.7 µM, a TGI (NCI-H460 lung) of 34.3 µM and a TGI (SK-OV-3 ovarian) of 34 µM. It also gave a TGI (COLO 205 colon) of 65.8 µM, a TGI (DMS 273 small cell lung) of 38.2 µM and a TGI (SK-MEL-5 melanoma) of 28.9 µM. For the same molecule, the TGI (UACC-257 melanoma) was 33.1 µM, the TGI (SF-539 CNS) was 33.8 µM and the TGI (DMS 114 small cell lung) was 52.9 µM. It also gave a TGI (MALME-3M melanoma) of 33 µM, a TGI (ACHN renal) of 36.2 µM and a TGI (OVCAR-3 ovarian) of 42.4 µM. The TGI (HCC-2998 colon) was 27.8 µM, the TGI (HCT-116 colon) was 37.1 µM and the TGI (SNB-75 CNS) was 32.5 µM. It also gave a TGI (K-562 leukemia) of 31.2 µM, a TGI (SNB-19 CNS) of 44 µM and a TGI (LXFL 529 NSCLC) of 32.9 µM. The TGI (SN12C renal) was 49.3 µM, the TGI (UO-31 renal) was 35.1 µM and the TGI (CCRF-CEM leukemia) was 32.6 µM. For the same molecule, the TGI (SF-268 CNS) was 42.2 µM, the TGI (NCI-H226 lung) was 45.1 µM and the TGI (UACC-62 melanoma) was 30.9 µM. It also gave a TGI (OVCAR-4 ovarian) of 34.2 µM, a TGI (HT29 colon) of 33 µM and a TGI (HOP-92 NSCLC) of 31.6 µM. For the same molecule, the TGI (MOLT-4 leukemia) was 33.9 µM, the TGI (EKVX NSCLC) was 38.9 µM and the TGI (LOX IMVI melanoma) was 40.5 µM. It also gave a TGI (HCT-15 colon) of 34.9 µM, a TGI (SK-MEL-2 melanoma) of 39 µM and a TGI (KM12 colon) of 29.1 µM. The TGI (M14 melanoma) was 34.9 µM, the TGI (XF 498 CNS) was 29.3 µM and the TGI (OVCAR-5 ovarian) was 37.3 µM. The TGI (786-0 renal) was 38.6 µM, the TGI (M19-MEL melanoma) was 35.5 µM and the TGI (KM20L2 colon) was 35.1 µM. For the same molecule, the TGI (HL-60(TB) leukemia) was 98.4 µM.
